Measurements: US10618939B2, “Hydrocarbon-stapled polypeptides for enhancement of endosome-lysosomal degradation” (The Hong Kong Polytechnic University, priority 2016, dated 2020)
Entries after “also recorded” stand apart in the source; their conditions may differ. Bridge positions count the residues as written; N and C are the ends. Square brackets hold non-standard residues; d marks the D form. Ends that are not written are not given here. Peptide text beside a SMILES is read from it. R8 = C=CCCCCCC[C@@](C)(N)C(=O)O; S5 = C=CCCC[C@](C)(N)C(=O)O

Legend:
EGFR in HEK293T cells = assay: EGFR degradation assay in HEK293T cells; format: cell-based
Protocol: (§1) HEK293T or A549 cells in 6-well plate were washed with PBS two times and serum-starved overnight in DMEM. EGFR endocytosis was induced by incubation with DMEM medium (with 20 mM HEPES and 0.2% BSA) containing 200 ng/mL of EGF (Invitrogen). Cells were collected at each time point after EGF stimulation and lysed in Laemmli sample buffer (62.5 mM Tris-HCl, pH 6.8, 2% SDS, 25% glycerol, 5% β-mercaptoethanol). 20 μg protein lysate was collected for each time point, analyzed by SDS-PAGE and immunoblotted with anti-EGFR antibody (1:2000, Santa Cruz Biotechnology).

[1] = test system: mutated EGFR in H1975 cell lines; assay: EGFR degradation assay in H1975 cells; format: cell-based; conditions: H1975 NSCLC
HEK293T cells = assay: LC3 lipidation western blot in HEK293T cells; format: cell-based; conditions: 10 μM and 20 μM, absence or presence of chloroquine (50 μM)
Protocol: Transient DNA transfection was performed using Lipofectamine 2000 (Invitrogen). For Co-IP experiment to measure interaction between UVRAG and endogenous Beclin 1, FLAG-tagged UVRAG plasmids were transfected into HEK293T cells. […] For immunoblotting assay of LC3-II, p62 and EGFR degradation, FLAG-tagged UVRAG mutant plasmids were transfected into HEK293T cells, HeLa cell stably expressing GFP-LC3 and A549 NSCLC cells respectively. Cells were lysed in IP buffer (25 mM HEPES PH 7.5, 10 mM MgCl2, 150 mM NaCl, 1 mM EDTA.2Na, 1% Nonidet P-40, 1% Triton X-100 and 2% glycerol) or Laemmli sample buffer (62.5 mM Tris-HCl, pH 6.8, 2% SDS, 25% glycerol, 5% β-mercaptoethanol) with freshly added EDTA-free protease inhibitor cocktail (Roche). Protein lysate was either directly subject to immunoblot assay or Co-IP. For Co-IP, Lysates were incubated with FLAG magnetic beads (Sigma) overnight at 4° C. The beads were washed with 1×IP lysis buffer 5 times and then eluted with 2×SDS sample buffer.

[2] = test system: wild type EGFR in A549 cell line; assay: EGFR degradation assay in A549 cells; format: cell-based; conditions: A549 NSCLC
Protocol: as §1

[3] = target: T1, Beclin 1 coiled coil domain (Rattus norvegicus, UniProt Q91XJ1); assay: Light Scattering (LS) profile, dimer-to-monomer transition of Beclin 1 coiled coil domain; format: biochemical
T1 construct: thioredoxin-6xHis fusion (3C protease site) (cleaved yes); made in house; host or cells: Escherichia coli BL21 (DE3)
Excerpt: Tat sequence (SEQ ID NO: 13: YGRKKRRQRRR) was linked in front of all peptides except the rhodamine B labeled one to enhance cell permeability. The computationally optimized stapled peptide SP4 (SEQ ID NO: 4) was chosen and synthesized by a commercial vendor following the synthetic method pioneered by Kim et. al. (Kim, Grossmann et al. 2011) (FIG. 1C). The purified product was confirmed by mass spectroscopy and HPLC. The importance of the hydrocarbon staple in maintaining the α-helical structure of the designed peptide was confirmed by circular dichroism (CD) measurements (FIG. 1D). […] The Light Scattering (LS) profile of Beclin 1 coiled coil domain in absence of SP4 (SEQ ID NO: 4) indicates a homodimer with predicted molecular weight of 24.8 kDa.

[4] = test system: GFP-tagged Beclin 1 in A549 cell; assay: Confocal colocalization with GFP-Beclin 1 in A549 cells; format: cell-based; conditions: A549 cells transiently expressing GFP-Beclin 1, 20 μM, 30 minutes
Protocol: A549 cells transiently expressing GFP-Beclin 1 were treated with 20 μM Rhodamine-SP4 (SEQ ID NO: 4) for 30 minutes and observed under a confocal microscope.

T1 sequence (Q91XJ1 174-266 limits assumed): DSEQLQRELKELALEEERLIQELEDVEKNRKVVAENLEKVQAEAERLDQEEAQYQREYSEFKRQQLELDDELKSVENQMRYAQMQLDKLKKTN

| Compound | EGFR degradation (EGFR in HEK293T cells) | EGFR degradation [1] | LC3 lipidation (HEK293T cells) | EGFR degradation [2] | dimer-to-monomer transition in Beclin 1 coiled coil domain [3] | colocalization with GFP-Beclin 1 [4] |
| --- | --- | --- | --- | --- | --- | --- |
| CC[C@H](C)[C@H](NC(=O)[C@H](CC(C)C)NC(=O)[C@H](CCCNC(=N)N)NC(C)=O)C(=O)N[C@@H](CO)C(=O)N[C@@H](CCC(=O)O)C(=O)N[C@@H](CC(C)C)C(=O)N[C@]1(C)CCCCCC/C=C/CCC[C@@](C)(C(=O)N[C@@H](C)C(N)=O)NC(=O)[C@H](CCCNC(=N)N)NC(=O)[C@H](CCC(N)=O)NC(=O)[C@H](CCCCN)NC(=O)[C@H](CCC(=O)O)NC(=O)[C@H](CCCNC(=N)N)NC(=O)[C@H](CC(=O)O)NC1=O [SP4] (Ac-RLISEL[R8]DREKQR[S5]A-NH2; staple (E) 7-14; N-terminus and C-terminus assumed) | significantly enhanced EGFR degradation | significantly enhanced EGFR degradation | enhanced LC3 lipidation in dosage-dependent manner | significantly enhanced EGFR degradation | can induce dimer-to-monomer transition | – |
| Rhodamine-labeled SP4: rhodamine B labeled SP4, without Tat sequence (RLISEL[R8]DREKQR[S5]A; staple 7-14 (inferred); also: rhodamine B label, position not given here) | – | – | – | – | – | colocalizes; also recorded: co-localized well |
